Data reported in patent US9617289B2, “RSV antiviral compounds” (JANSSEN R&D IRELAND, priority 2012, dated 2017).
Structures can show the parent of a compound that is named as a salt. Where two headings read alike, the source gives them in different places.

Experiments:
rgRSV224 virus = test: Antiviral activity: inhibition of rgRSV224 (GFP-expressing RSV) replication in HeLa cells; format: cell-based, respiratory syncytial virus; conditions: human respiratory syncytial virus, HeLa, 72 h
Summary of the method: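 HeLa cells infected with GFP-expressing rgRSV224 at MOI 0.02 alongside 4-fold compound dilutions in duplicate (0.5% DMSO). Incubated 3 days at 37 °C; EC50 taken as 50% inhibition of GFP expression by laser microscopy. CC50 measured in parallel uninfected cells by ATP content after 3 days; SI = CC50/EC50.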

[1] = read-out: RSV-wt_pEC50, rgRSV224 (MOI=0.02) in HeLa cells, GFP expression three days post-virus exposure
[2] = read-out: pEC50, rgRSV224 (MOI=0.02) in HeLa cells, GFP expression three days post-virus exposure (converted)

Row | SMILES | EC50 (rgRSV224 virus; [1]) | melting point | EC50 (rgRSV224 virus; [2])
1 | CC(C)(O)C(=O)N1CCC2(CC1)C(=O)N(Cc1nc3cc(Cl)ccc3n1CCCCF)c1cnccc12 [Compound 169, 1′-{[5-Chloro-1-(4-fluorobutyl)-1H-benzimidazol-2-yl]methyl}-1-(2-hydroxy-2-methylpropanoyl)spiro[piperidine-4,3′-pyrrolo[2,3-c]pyridin]-2′(1′H)-one] | 0.0275 nM | 222.72 °C | 
2 | N#CCCCn1c(CN2C(=O)C3(CCN(C(=O)OC4COC4)CC3)c3ccncc32)cc2cc(Cl)ccc21 [Compound 80, oxetan-3-yl 1′-((5-chloro-1-(3-cyanopropyl)-1H-indol-2-yl)-methyl)-2′-oxo-1′,2′-dihydro[spiropiperidine-4,3′-pyrrolo-[2,3-c]pyridine]-1-carboxylate] |  | 208.24 °C | < 0.158 nM
3 | CS(=O)(=O)CCCn1c(CN2C(=O)C3(CCN(S(=O)(=O)C4CC4)CC3)c3ccncc32)nc2cc(Cl)ccc21 [Compound 85, 1′-((5-chloro-1-(3-(methylsulfonyl)propyl)-1H-benzo[d]-imidazol-2-yl)methyl)-1-(cyclopropylsulfonyl)spiro-[piperidine-4,3′-pyrrolo[2,3-c]pyridin]-2′(1′H)-one] |  | 150.42 °C | < 0.158 nM
4 | CC(C)C(=O)N1CC2(C1)C(=O)N(Cc1nc3cc(Cl)ccc3n1CCCS(C)(=O)=O)c1ccccc12 [Compound 28, 1′-({5-chloro-1-[3-(methylsulfonyl)propyl]-1H-benzimidazol-2-yl}methyl)-1-(2-methylpropanoyl)-spiro[azetidine-3,3′-indol]-2′(1′H)-one] |  | 133.12 °C | < 0.158 nM
5 | CC(C)(C)OC(=O)N1CC2(C1)C(=O)N(Cc1nc3cc(Cl)ccc3n1CCCC#N)c1ccccc12 [Compound 70, tert-butyl 1′-((5-chloro-1-(3-cyanopropyl)-1H-benzo[d]-imidazol-2-yl)methyl)-2′-oxospiro[azetidine-3,3′-indoline]-1-carboxylate] |  | 144.1 °C | < 0.158 nM
6 | CS(=O)(=O)CCCn1c(CN2C(=O)C3(CCN(S(=O)(=O)C4CC4)CC3)c3ccccc32)nc2cc(Cl)ccc21 [Compound 35, 1-({5-chloro-1-[3-(methylsulfonyl)propyl]-1H-benzimidazol-2-yl}methyl)-1′-(cyclopropylsulfonyl)-spiro[indole-3,4′-piperidin]-2(1H)-one] |  | 194.85 °C | 0.794 nM
7 | CC(C)NC(=O)N[C@H]1C[C@]2(C1)C(=O)N(Cc1nc3cc(Cl)ccc3n1CCCC#N)c1ccccc12 [Compound 143, 1-((1s,3s)-1′-((5-chloro-1-(3-cyanopropyl)-1H-benzo[d]imidazol-2-yl)methyl)-2′-oxospiro[cyclobutane-1,3′-indolin]-3-yl)-3-isopropylurea] | 3.31 nM | 242.49 °C | 
8 | CS(=O)(=O)N1CCC2(CC1)C(=O)N(Cc1cc3cc(Cl)ccc3n1CCCC#N)c1cnccc12 [Compound 105, 4-(5-Chloro-2-{[1-(methylsulfonyl)-2′-oxospiro[piperidine-4,3′-pyrrolo[2,3-c]pyridin]-1′(2′H)-yl]methyl}-1H-indol-1-yl)butanenitrile] | 0.0832 nM | 145.3 °C | 
9 | CC(=O)N1CCC2(CC1)C(=O)N(Cc1nc3cc(Cl)ccc3n1CCCS(C)(=O)=O)c1ccccc12 [Compound 32, 1′-acetyl-1-({5-chloro-1-[3-(methylsulfonyl)propyl]-1H-benzimidazol-2-yl}methyl)spiro[indole-3,4′-piperidin]-2(1H)-one] |  | 247.98 °C | 0.631 nM
10 | CS(=O)(=O)CCCn1c(CN2C(=O)C3(CC(O)C3)c3ccccc32)nc2cc(Cl)ccc21 [Compound 11, (3S)-1′-({5-chloro-1-[3-(methylsulfonyl)propyl]-1H-benzimidazol-2-yl}methyl)-3-hydroxyspiro[cyclobutane-1,3′-indol]-2′(1′H)-one] |  | 232.91 °C | 0.398 nM
11 | N#CCCCn1c(CN2C(=O)C3(CCNCC3)c3ccncc32)cc2cc(Cl)ccc21 (as salt: hydrochloride) [Compound 78, 4-(5-chloro-2-((2′-oxospiro[piperidine-4,3′-pyrrolo[2,3-c]-pyridin]-1′(2′H)-yl)methyl)-1H-indol-1-yl)butanenitrile hydrochloride] |  | 82.02 °C | 
12 | N#CCCCn1c(CN2C(=O)C3(CN(S(=O)(=O)C4CC4)C3)c3ccccc32)nc2cc(Cl)ccc21 [Compound 180, 4-(5-Chloro-2-{[1-(cyclopropylsulfonyl)-2′-oxospiro[azetidine-3,3′-indol]-1′(2′H)-yl]methyl}-1H-benzimidazol-1-yl)butanenitrile] | 0.117 nM | 190.42 °C | 
13 | CNC(=O)OC1CC2(C1)C(=O)N(Cc1nc3cc(Cl)ccc3n1CCCS(C)(=O)=O)c1ccccc12 [Compound 104, (1R,3R)-1′-((5-chloro-1-(3-(methylsulfonyl)propyl)-1H-benzo[d]imidazol-2-yl)methyl)-2′-oxospiro[cyclobutane-1,3′-indoline]-3-yl methylcarbamate] | 0.0229 nM | 204.17 °C | 
14 | CC(=O)N[C@H]1C[C@]2(C1)C(=O)N(Cc1nc3cc(Cl)ccc3n1CCCC#N)c1ccccc12 [Compound 145, N-((1s,3s)-1′-((5-chloro-1-(3-cyanopropyl)-1H-benzo[d]imidazol-2-yl)methyl)-2′-oxospiro[cyclobutane-1,3′-indolin]-3-yl)acetamide] | 0.302 nM | 250.91 °C | 
15 | CC(=O)NS(=O)(=O)N1CCC2(CC1)C(=O)N(Cc1nc3cc(Cl)ccc3n1CCCC#N)c1cnccc12 [Compound 95, N-[(1′-{[5-Chloro-1-(3-cyanopropyl)-1H-benzimidazol-2-yl]methyl}-2′-oxo-1′,2′-dihydro-1H-spiro[piperidine-4,3′-pyrrolo[2,3-c]pyridin]-1-yl)sulfonyl]acetamide] | 0.0794 nM |  | 
16 | CC(C)(O)C(=O)N1CCC2(CC1)C(=O)N(Cc1cc3cc(Cl)ccc3n1CCCS(C)(=O)=O)c1cnccc12 [Compound 74, 1′-((5-chloro-1-(3-(methylsulfonyl)propyl)-1H-indol-2-yl)-methyl)-1-(2-hydroxy-2-methylpropanoyl)spiro[piperidine-4,3′-pyrrolo[2,3-c]pyridin]-2′(1′H)-one] |  |  | 0.2 nM
17 | CNC(=O)O[C@H]1C[C@@]2(C1)C(=O)N(Cc1nc3cc(Cl)ccc3n1CCCC#N)c1ccccc12 [Compound 168, (1r,3r)-1′-((5-chloro-1-(3-cyanopropyl)-1H-benzo[d]imidazol-2-yl)methyl)-2′-oxospiro[cyclobutane-1,3′-indolin]-3-yl methylcarbamate] | 0.0347 nM |  | 
18 | CC(C)(O)C(=O)N1CCC2(C1)C(=O)N(Cc1nc3cc(Cl)ccc3n1CCCS(C)(=O)=O)c1ccccc12 (stereo not drawn) [Compound 138, 1-((5-chloro-1-(3-(methylsulfonyl)propyl)-1H-benzo[d]imidazol-2-yl)methyl)-1′-(2-hydroxy-2-methylpropanoyl)spiro[indoline-3,3′-pyrrolidlin]-2-one] | 2.14 nM |  | 
19 | N#CCCCn1c(CN2C(=O)C3(CNC3)c3ccccc32)nc2cc(Cl)ccc21 [Compound 101, 4-{5-Chloro-2-[(2′-oxospiro[azetidine-3,3′-indol]-1′(2′H)-yl)methyl]-1H-benzimidazol-1-yl}butanenitrile] | 0.891 nM |  | 
20 | CS(=O)(=O)CCCn1c(CN2C(=O)C3(CCN(S(=O)(=O)c4ccc5nccnc5c4)CC3)c3ccncc32)nc2cc(Cl)ccc21 [Compound 13, 1′-((5-chloro-1-(3-(methylsulfonyl)propyl)-1H-benzo[d]-imidazol-2-yl)methyl)-1-(quinoxalin-6-ylsulfonyl)spiro-[piperidine-4,3′-pyrrolo[2,3-c]pyridin]-2′(1′H)-one] |  |  | 0.0501 nM
21 | N#CCCCn1c(CN2C(=O)C3(CCN(C(=O)OC4CCC4)CC3)c3ccncc32)cc2cc(Cl)ccc21 [Compound 103, Cyclobutyl 1′-{[5-chloro-1-(3-cyanopropyl)-1H-indol-2-yl]-methyl}-2′-oxo-1′,2′-dihydro-1H-spiro[piperidine-4,3′-pyrrolo[2,3-c]pyridine]-1-carboxylate] | 0.263 nM |  | 
22 | CC(C)(C)OC(=O)N1CC2(C1)C(=O)N(Cc1cc3cc(Cl)ccc3n1CCCC#N)c1ccccc12 [Compound 58, tert-butyl 1′-{[5-chloro-1-(3-cyanopropyl)-1H-indol-2-yl]-methyl}-2′-oxo-1′,2′-dihydro-1H-spiro[azetidine-3,3′-indole]-1-carboxylate] |  |  | < 0.2 nM
23 | O=C1N(Cc2cc3cc(Cl)ccc3n2CCCCF)c2cnccc2C12CCNCC2 [Compound 162] | 4.57 nM |  | 
24 | CS(=O)(=O)CCCn1c(CN2c3ccccc3[C@]3(C[C@@H](OC(=O)N4CCOCC4)C3)C2=O)nc2cc(Cl)ccc21 [Compound 133, (1r,3r)-1′-((5-chloro-1-(3-(methylsulfonyl)propyl)-1H-benzo[d]imidazol-2-yl)methyl)-2′-oxospiro[cyclobutane-1,3′-indolin]-3-yl morpholine-4-carboxylate] | 0.141 nM |  | 
25 | CC(C)(C)OC(=O)N1CC2(C1)C(=O)N(Cc1nc3cc(Cl)ccc3n1CCCC(F)(F)F)c1ccccc12 [Compound 44, tert-butyl 1′-((5-chloro-1-(4,4,4-trifluorobutyl)-1H-benzo[d]imidazol-2-yl)methyl)-2′-oxospiro[azetidine-3,3′-indoline]-1-carboxylate] |  |  | 0.251 nM
26 | CNC(=O)O[C@H]1C[C@@]2(C1)C(=O)N(Cc1cc3cc(Cl)ccc3n1CCCC#N)c1ccccc12 [Compound 123, (1r,3r)-1′-((5-chloro)-1-(3-cyanopropyl)-1H-indol-2-yl)methyl)-2′-oxospiro[cyclobutane-1,3′-indolin]-3-yl methylcarbamate] | 0.339 nM |  | 
